SMILES strings stand for the structures.

The target of assay [1] is CDK1/Cyclin A (Homo sapiens) (UniProt P06493+P20248). Briefly: Inhibition of CDK1/CyclinA (unknown origin) at 50 nM by Z'LYTE screening method relative to control. In kind it is protein-complex assay.
Assay [2] concerns the target ALK tyrosine kinase receptor (Homo sapiens) (UniProt Q9UM73). As to the kind of experiment: Inhibition of ALK (unknown origin) at 50 nM by Z'LYTE screening method relative to control.
For a further assay, the species on record is Homo sapiens. Briefly: Inhibition of CDK1/Cyclin B (unknown origin) at 50 nM by Z'LYTE screening method relative to control.
Assay [3] addresses Protein kinase C beta type (Homo sapiens) (UniProt P05771). Briefly: Inhibition of PKCbeta1 (unknown origin) at 50 nM by Z'LYTE screening method relative to control.
For assay [4], the target named is Cell division control protein 42 homolog (Homo sapiens) (UniProt P60953). As to the kind of experiment: Inhibition of CDC42 delta (unknown origin) at 50 nM by Z'LYTE screening method relative to control.
For assay [5], the target named is Protein kinase C beta type (Homo sapiens) (UniProt P05771). As to the kind of experiment: Inhibition of PKCbeta2 (unknown origin) at 50 nM by Z'LYTE screening method relative to control.
Assay [6] deals with Receptor tyrosine-protein kinase erbB-2 (Homo sapiens) (UniProt P04626). As to the kind of experiment: Inhibition of ERBB2 (unknown origin) at 50 nM by Z'LYTE screening method relative to control.
Assay [7] addresses T1, Aurora kinase A (Homo sapiens) (UniProt O14965).
T1 sequence (whole entry): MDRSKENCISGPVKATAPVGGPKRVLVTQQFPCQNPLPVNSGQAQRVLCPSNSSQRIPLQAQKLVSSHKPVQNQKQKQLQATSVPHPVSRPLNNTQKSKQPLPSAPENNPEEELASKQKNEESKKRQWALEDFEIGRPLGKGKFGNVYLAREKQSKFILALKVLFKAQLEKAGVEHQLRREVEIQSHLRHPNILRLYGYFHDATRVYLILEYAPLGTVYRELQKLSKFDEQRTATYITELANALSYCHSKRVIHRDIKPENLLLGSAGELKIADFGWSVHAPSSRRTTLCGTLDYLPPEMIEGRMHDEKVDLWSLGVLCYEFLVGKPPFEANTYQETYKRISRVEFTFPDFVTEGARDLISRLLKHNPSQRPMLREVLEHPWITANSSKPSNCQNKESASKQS
Briefly: Inhibition of AURA (unknown origin) at 50 nM by Z'LYTE screening method relative to control.

Assay [8] has as its target T2, Eukaryotic elongation factor 2 kinase (Homo sapiens) (UniProt O00418).
T2 sequence (whole entry): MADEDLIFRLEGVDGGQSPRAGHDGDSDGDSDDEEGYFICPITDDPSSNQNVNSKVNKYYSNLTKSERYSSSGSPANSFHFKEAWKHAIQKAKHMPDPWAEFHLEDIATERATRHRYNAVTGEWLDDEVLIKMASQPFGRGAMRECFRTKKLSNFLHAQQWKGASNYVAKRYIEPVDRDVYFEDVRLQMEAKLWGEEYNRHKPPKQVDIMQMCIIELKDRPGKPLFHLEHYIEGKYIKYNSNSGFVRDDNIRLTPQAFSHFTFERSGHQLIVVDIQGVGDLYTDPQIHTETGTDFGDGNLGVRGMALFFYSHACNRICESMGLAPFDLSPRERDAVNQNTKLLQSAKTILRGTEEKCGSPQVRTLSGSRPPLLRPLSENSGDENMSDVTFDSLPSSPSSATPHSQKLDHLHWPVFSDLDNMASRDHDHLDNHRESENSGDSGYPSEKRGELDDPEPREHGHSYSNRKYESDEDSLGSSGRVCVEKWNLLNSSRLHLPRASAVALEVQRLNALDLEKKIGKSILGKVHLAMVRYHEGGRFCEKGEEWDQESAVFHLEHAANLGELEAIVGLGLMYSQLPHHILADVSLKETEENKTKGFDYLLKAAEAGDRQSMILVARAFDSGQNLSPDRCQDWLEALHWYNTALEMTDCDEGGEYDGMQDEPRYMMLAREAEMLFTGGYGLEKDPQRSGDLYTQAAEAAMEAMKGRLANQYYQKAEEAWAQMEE
As to the kind of experiment: Inhibition of EEF2K (unknown origin) at 50 nM by Z'LYTE screening method relative to control.

For assay [9], the target named is Fibroblast growth factor receptor 1 (Homo sapiens) (UniProt P11362). As to the kind of experiment: Inhibition of FGFR1 (unknown origin) at 50 nM by Z'LYTE screening method relative to control.
The target of assay [10] is Focal adhesion kinase 1 (Homo sapiens) (UniProt Q05397). As to the kind of experiment: Inhibition of FAK (unknown origin) at 50 nM by Z'LYTE screening method relative to control.
The target in assay [11] is RAC-alpha serine/threonine-protein kinase (Homo sapiens) (UniProt P31749). Briefly: Inhibition of AKT1 (unknown origin) at 50 nM by Z'LYTE screening method relative to control.
In assay [12] the target is Serine/threonine-protein kinase PAK 1 (Homo sapiens) (UniProt Q13153). As to the kind of experiment: Inhibition of PAK1 (unknown origin) at 50 nM by Z'LYTE screening method relative to control.
Sequence of Serine/threonine-protein kinase PAK 1 (Homo sapiens) (Q13153 whole entry): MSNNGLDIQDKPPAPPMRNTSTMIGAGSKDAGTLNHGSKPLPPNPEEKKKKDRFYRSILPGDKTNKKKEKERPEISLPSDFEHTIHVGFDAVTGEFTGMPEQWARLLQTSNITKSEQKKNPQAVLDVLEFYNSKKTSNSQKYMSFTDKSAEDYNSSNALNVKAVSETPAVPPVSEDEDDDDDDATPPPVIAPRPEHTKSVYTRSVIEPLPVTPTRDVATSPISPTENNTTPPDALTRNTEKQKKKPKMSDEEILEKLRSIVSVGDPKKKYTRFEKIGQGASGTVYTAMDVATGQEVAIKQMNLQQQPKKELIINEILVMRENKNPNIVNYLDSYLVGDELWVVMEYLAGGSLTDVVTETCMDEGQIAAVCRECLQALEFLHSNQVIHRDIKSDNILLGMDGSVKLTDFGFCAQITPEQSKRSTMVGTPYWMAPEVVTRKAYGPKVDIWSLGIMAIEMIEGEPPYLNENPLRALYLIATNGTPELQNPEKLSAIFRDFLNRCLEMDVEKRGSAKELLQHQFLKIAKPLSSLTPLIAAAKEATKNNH
Assay [13] deals with Mitogen-activated protein kinase 11 (Homo sapiens) (UniProt Q15759). As to the kind of experiment: Inhibition of MAPK11 (unknown origin) at 50 nM by Z'LYTE screening method relative to control.
Sequence of Mitogen-activated protein kinase 11 (Homo sapiens) (Q15759 whole entry): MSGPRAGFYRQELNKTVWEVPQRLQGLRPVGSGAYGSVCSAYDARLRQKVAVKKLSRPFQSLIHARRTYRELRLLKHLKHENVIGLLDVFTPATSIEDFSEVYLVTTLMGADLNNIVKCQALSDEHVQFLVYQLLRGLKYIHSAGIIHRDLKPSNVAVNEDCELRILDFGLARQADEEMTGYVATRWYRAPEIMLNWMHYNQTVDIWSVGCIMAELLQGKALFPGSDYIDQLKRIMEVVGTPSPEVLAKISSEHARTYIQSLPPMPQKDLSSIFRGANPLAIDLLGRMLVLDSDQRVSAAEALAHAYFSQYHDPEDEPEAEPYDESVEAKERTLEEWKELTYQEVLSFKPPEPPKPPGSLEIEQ
Assay [14] concerns the target Tyrosine-protein kinase ABL1 (Homo sapiens) (UniProt P00519). As to the kind of experiment: Inhibition of ABL1 (unknown origin) at 50 nM by Z'LYTE screening method relative to control.
Assay [15] deals with T3, Protein kinase C zeta type (Homo sapiens) (UniProt Q05513).
T3 sequence (whole entry): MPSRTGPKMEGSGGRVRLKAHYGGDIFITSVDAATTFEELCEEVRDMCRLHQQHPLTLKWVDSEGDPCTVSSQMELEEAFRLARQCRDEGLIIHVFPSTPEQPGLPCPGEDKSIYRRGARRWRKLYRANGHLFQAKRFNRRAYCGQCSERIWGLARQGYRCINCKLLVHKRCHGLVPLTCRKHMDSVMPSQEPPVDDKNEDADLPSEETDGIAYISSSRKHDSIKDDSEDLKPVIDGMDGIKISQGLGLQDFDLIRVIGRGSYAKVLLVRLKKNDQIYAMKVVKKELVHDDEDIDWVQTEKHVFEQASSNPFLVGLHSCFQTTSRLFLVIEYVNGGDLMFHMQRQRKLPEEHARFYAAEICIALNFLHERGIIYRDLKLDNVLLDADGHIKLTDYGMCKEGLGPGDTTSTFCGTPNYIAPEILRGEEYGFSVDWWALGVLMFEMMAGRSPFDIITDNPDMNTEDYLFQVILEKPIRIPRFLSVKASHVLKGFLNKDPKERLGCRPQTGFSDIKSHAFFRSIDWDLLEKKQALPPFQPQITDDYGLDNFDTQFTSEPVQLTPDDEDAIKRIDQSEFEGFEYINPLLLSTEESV
Briefly: Inhibition of PKCzeta (unknown origin) at 50 nM by Z'LYTE screening method relative to control.

Assay [16] has as its target DNA-dependent protein kinase catalytic subunit (Homo sapiens) (UniProt P78527). As to the kind of experiment: Inhibition of DNA-PK (unknown origin) at 50 nM by Z'LYTE screening method relative to control.

Sequence of DNA-dependent protein kinase catalytic subunit (Homo sapiens) (P78527 whole entry): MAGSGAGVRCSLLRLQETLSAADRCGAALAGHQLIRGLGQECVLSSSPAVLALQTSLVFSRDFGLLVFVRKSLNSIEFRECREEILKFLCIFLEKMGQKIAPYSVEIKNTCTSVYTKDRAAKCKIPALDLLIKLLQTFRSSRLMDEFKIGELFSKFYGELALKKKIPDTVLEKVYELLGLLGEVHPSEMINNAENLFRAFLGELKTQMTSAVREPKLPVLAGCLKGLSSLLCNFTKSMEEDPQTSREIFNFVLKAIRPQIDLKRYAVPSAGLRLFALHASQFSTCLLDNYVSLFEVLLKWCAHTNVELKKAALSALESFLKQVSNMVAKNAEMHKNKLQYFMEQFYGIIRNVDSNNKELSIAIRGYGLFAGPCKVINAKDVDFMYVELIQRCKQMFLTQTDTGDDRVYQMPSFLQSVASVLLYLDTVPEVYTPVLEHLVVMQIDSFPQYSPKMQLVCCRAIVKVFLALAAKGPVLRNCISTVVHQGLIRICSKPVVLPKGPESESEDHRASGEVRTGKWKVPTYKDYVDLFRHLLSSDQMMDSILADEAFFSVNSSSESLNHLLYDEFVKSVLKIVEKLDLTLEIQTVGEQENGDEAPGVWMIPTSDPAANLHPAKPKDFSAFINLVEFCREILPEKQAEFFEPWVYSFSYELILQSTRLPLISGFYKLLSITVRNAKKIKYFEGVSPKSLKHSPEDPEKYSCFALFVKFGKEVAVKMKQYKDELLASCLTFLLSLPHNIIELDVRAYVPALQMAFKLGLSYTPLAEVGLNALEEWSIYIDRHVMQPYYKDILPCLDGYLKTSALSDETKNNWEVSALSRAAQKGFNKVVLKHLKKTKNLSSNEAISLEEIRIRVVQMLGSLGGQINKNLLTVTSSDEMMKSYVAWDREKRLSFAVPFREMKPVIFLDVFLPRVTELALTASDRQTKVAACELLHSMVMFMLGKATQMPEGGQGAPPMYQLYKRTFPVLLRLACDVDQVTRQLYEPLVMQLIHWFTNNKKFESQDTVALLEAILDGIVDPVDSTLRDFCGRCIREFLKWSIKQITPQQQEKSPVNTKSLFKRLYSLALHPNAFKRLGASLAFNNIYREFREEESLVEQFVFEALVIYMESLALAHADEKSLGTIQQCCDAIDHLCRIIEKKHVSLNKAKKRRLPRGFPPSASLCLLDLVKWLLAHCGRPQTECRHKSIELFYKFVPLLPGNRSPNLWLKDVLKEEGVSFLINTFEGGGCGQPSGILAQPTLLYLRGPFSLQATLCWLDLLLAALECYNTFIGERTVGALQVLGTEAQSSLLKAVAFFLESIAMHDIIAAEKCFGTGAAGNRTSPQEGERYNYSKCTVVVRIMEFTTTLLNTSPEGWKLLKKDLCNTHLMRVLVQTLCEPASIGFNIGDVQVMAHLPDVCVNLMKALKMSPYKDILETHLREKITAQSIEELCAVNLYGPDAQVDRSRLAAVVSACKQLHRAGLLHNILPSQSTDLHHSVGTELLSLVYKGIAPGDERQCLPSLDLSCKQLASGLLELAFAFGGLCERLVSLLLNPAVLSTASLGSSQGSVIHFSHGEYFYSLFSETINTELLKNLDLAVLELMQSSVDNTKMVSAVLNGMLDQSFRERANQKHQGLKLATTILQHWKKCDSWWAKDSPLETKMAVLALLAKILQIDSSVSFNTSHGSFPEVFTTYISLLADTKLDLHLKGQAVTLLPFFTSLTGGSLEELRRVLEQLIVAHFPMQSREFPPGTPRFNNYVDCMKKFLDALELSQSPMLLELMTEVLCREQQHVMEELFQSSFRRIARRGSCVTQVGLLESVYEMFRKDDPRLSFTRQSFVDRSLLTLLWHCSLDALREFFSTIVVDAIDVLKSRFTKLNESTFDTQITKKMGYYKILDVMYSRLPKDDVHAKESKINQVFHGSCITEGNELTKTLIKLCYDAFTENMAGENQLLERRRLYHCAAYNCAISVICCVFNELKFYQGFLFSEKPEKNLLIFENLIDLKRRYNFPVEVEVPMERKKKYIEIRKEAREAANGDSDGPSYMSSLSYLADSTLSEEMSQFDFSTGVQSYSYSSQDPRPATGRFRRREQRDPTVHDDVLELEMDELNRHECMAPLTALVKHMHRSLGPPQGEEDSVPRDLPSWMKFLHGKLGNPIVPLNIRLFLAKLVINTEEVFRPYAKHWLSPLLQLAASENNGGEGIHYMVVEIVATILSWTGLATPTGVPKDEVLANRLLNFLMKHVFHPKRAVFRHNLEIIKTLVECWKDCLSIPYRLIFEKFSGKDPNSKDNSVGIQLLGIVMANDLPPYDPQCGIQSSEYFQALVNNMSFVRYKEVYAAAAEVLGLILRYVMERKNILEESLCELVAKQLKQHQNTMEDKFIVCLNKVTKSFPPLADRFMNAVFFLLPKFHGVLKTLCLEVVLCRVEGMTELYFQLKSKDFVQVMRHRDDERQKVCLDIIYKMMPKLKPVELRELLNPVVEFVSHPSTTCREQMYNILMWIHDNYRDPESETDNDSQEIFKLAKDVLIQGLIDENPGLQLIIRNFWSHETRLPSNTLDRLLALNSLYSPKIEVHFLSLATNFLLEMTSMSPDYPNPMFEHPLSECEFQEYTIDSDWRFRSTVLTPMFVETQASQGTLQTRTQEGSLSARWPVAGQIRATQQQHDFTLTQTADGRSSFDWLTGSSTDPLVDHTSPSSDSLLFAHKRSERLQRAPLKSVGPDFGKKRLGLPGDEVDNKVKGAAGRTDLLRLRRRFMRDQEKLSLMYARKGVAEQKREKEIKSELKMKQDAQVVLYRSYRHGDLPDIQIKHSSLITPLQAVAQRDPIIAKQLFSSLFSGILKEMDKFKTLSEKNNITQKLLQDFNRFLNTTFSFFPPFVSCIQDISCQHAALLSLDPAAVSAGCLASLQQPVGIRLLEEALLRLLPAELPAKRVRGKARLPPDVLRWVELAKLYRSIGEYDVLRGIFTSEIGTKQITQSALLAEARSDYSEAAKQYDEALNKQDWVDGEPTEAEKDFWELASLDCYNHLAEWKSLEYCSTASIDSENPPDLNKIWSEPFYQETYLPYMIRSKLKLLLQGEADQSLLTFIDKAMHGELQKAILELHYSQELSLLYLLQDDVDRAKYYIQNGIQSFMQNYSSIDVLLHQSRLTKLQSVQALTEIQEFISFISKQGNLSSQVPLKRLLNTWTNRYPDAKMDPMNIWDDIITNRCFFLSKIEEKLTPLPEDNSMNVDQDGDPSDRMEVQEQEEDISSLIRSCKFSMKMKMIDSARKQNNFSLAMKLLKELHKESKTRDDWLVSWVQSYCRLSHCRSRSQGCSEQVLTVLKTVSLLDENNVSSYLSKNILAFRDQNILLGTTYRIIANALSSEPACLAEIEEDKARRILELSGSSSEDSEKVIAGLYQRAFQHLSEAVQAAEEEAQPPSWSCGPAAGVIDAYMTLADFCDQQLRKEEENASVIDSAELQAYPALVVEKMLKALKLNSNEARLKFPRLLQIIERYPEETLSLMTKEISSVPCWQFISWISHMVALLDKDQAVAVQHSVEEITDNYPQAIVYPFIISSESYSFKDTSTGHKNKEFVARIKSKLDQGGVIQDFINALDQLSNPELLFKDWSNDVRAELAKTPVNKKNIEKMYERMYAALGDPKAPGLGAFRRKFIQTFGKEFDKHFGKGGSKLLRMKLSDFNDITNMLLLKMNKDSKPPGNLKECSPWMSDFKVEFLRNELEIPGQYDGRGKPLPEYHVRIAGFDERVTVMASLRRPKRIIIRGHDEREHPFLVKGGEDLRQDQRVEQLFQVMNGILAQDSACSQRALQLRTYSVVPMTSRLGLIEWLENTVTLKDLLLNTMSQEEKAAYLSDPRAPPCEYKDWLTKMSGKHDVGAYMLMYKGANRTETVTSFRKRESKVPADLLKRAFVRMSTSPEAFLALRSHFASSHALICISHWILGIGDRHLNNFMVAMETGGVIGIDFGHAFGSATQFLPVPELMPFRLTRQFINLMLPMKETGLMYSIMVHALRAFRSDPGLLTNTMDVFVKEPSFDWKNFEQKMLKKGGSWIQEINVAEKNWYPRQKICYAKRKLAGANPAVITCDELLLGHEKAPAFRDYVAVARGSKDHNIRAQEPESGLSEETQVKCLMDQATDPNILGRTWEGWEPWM

Broadly, the inhibition is the drop in the measured response relative to a control, in per cent. A lower inhibition goes with little suppression. Consider `O=C1c2ccccc2CN1c1nc(NC2CCCC2)c2nc[nH]c2n1`, for which the inhibition in assay [1] amounted to 0%; in assay [2], 2%; in the assay listed under Homo sapiens it was 0%; in [3], 0%; in assay [4] it was 0%; in [5], 9%. In addition, the inhibition in [6] turned out to be 0%; in [7], 1%; in assay [8], 2%; in [9], 0%; in [10], 0%; in [11], 1%. The inhibition in [12] is 0%; in assay [13], 0%; in assay [14] it was 1%; in [15] it was 6%; in [16], 0%.

Consider `O=c1c2ccccc2[se]n1-c1nc(N[C@H]2CC[Se]C2)c2nc[nH]c2n1`, for which the inhibition in [1] was found to be 0%; in assay [2], 0%; in the assay filed under Homo sapiens, 0%; in [3], 95%; in [4] it was 0%; in assay [5], 8%. The inhibition in assay [6] stood at 0%; in [7] it was 87%; in assay [8] it was 2%; in [9] it was 0%; in assay [10], 0%; in [11], 0%. The inhibition worked out at 0% in [12]; 9% in assay [13]; 1% in assay [14]; 12% in assay [15]; 0% in assay [16].

For `O=C1c2ccccc2CN1c1nc(N[C@H]2CC[Se]C2)c2nc[nH]c2n1`, the inhibition in [1] was 1%; in [2], 0%; in the assay listed under Homo sapiens, 0%; in assay [3], 7%; in assay [4], 0%; in assay [5], 9%. Further, the inhibition was 1% in assay [6]; 9% in [7]; 2% in assay [8]; 0% in [9]; 0% in [10]; 1% in assay [11]. Also, the inhibition is 0% in assay [12]; 3% in [13]; 0% in assay [14]; 6% in assay [15]; 0% in assay [16].

For the molecule `O=c1c2ccccc2[se]n1-c1nc(N[C@H]2CCOC2)c2nc[nH]c2n1`, the inhibition came out at 1% in assay [1]; 1% in [2]; 1% in the assay filed under Homo sapiens; 84% in assay [3]; 0% in assay [4]; 7% in assay [5]. Moreover, the inhibition in assay [6] was 0%; in [7], 71%; in assay [8], 2%; in [9], 0%; in assay [10], 0%; in [11], 1%. In addition, the inhibition in assay [12] was determined as 0%; in assay [13], 3%; in assay [14] it was 8%; in assay [15] it was 2%; in assay [16], 0%.

Turning to `O=c1c2ccccc2[se]n1-c1nc(N[C@@H]2C[C@H]3CC[C@@H]2C3)c2nc[nH]c2n1`, the inhibition in assay [1] was determined as 1%; in assay [2] it was 0%; in the assay filed under Homo sapiens, 0%; in assay [3], 0%; in assay [4], 0%; in [5], 62%. Besides, the inhibition in [6] was determined as 0%; in assay [7], 4%; in assay [8], 2%; in assay [9], 0%; in assay [10], 0%; in [11] it was 0%. Further, the inhibition in assay [12] came to 1%; in [13] it was 4%; in assay [14], 2%; in [15] it was 7%; in assay [16], 0%.

The record behind these values is ChEMBL document CHEMBL5154740, “Novel Aurora A and Protein Kinase C (α, β1, β2, and θ) Multitarget Inhibitors: Impact of Selenium Atoms on the Potency and Selectivity” (J Med Chem, 2022).
